According to BindingDB's records for patent US20240182453 (Boehringer Ingelheim International, 2024):

Biological target: Metabotropic glutamate receptor 4 (Homo sapiens, UniProt Q14833)
Assay: In Vitro Testing of mGluR4 Potency
Method: The in vitro activity of the compounds according to the invention may be investigated as follows:[0111]The HEK293 cell overexpressing the human metabotropic Glutamate 4 receptor are thawed at 37 C. and immediately diluted with cell culture medium. After centrifugation, the cell pellet is re-suspended in medium and then distributed from a stirred spinner flask into the wells of the assay plate. The plates are incubated for one hour at room temperature before they are incubated for 24 hours at 37 C./5% CO2. After washing the cells in the plate three times with 80 uL HBSS/HEPES buffer (10 uL buffer remained in the wells after washing), 5 uL per well of compounds diluted in HBSS/HEPES buffer containing 0.2% BSA (final concentration: 0.1%) and 1 mM IBMX (final concentration: 0.5 mM) are added to the wells of the assay plate. Thereafter 5 uL per well of L-Glutamic acid (final concentration: 10 uM), forskolin (final concentration: 1 uM) and 1 mM IBMX (final concentration: 0.5 mM) dissolved in HBSS/HEPES buffer containing 0.2% BSA (final concentration: 0.1%) are added to the assay plate (final DMSO concentration: 1%). […] The emission at 615 nm and 665 nm (Excitation wavelength: 320 nm) are measured on the EnVision reader (Perkin Elmer). The ratio between the emission at 665 nm and 615 is calculated by the reader. […]

Chain of Metabotropic glutamate receptor 4 (Q14833 whole entry): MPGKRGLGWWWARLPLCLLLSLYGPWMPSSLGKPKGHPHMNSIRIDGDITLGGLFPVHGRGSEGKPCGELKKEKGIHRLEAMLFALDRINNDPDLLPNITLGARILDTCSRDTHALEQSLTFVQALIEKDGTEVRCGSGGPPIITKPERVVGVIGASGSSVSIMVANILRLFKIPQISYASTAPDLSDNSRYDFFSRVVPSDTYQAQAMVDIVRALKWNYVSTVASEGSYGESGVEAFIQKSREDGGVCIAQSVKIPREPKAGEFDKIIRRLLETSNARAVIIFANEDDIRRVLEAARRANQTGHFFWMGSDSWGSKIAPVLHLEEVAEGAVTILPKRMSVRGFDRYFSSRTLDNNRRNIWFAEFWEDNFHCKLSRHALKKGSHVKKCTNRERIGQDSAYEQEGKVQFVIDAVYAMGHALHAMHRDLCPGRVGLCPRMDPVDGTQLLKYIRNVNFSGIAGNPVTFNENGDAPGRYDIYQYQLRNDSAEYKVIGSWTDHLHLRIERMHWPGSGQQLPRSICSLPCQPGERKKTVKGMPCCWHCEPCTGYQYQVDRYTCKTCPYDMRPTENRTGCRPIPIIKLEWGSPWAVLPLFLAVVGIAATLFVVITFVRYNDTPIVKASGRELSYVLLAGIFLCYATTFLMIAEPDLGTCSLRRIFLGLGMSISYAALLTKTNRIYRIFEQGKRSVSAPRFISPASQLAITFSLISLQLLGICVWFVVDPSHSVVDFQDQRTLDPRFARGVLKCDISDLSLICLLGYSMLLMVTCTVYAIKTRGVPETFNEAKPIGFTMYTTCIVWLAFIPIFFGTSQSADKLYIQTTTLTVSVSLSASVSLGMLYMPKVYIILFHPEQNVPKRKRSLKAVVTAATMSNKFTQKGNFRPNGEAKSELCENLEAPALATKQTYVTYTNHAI

Cc1cnc(C(=O)N[C@H](c2nc3cc(F)c(F)cc3n2C)C2CC2)cn1 [US20240182453, Example 66]
IC50: 23 nM
